Source: the OPERA property sets (Mansouri et al. 2018)

SMILES	logP
CNC(=O)N(C)C(=O)Nc1cc(I)ccc1F	3.58
CCCCCCCCn1nnnc1Oc1ccc(NC(=O)N(C)C)cc1	3.96
CCn1nnnc1Oc1ccc(NC(=O)N(C)C)cc1Cl	1.5
CNC(=O)N(C)C(=O)Nc1cc(-c2ccccc2)ccc1F	3.78
CNC(=O)N(C)C(=O)Nc1cc(F)ccc1F	2.4
CNC(=O)N(C)C(=O)Nc1ccccc1F	2.12
CN(C)C(=O)Nc1ccc(Oc2nnnn2Cc2ccccc2)cc1	1.7
CCn1nnc(Oc2ccc(NC(=O)N(C)C)cc2)n1	1.1
CN(C)C(=O)Nc1ccc(Oc2nnn(C(C)(C)C)n2)cc1	2.08
CCOC(=O)Cn1nnnc1Oc1ccc(NC(=O)N(C)C)cc1	0.7
CCCCCCCCn1nnc(Oc2ccc(NC(=O)N(C)C)cc2)n1	4.4
Fc1ccccc1C1OCC2ON=C(c3ccccc3)C2CO1 (stereo unspecified)	2.35
CN(C)C(=O)Nc1ccc(Oc2nnn(CCC#N)n2)cc1	0.28
CNC(=O)N(C)C(=O)Nc1cc(C2CCCCC2)ccc1F	4.58
C#CCn1nnc(Oc2ccc(NC(=O)N(C)C)cc2)n1	1.65
CN(C)C(=O)Nc1ccc(Oc2nnnn2C(C)(C)C)c(Cl)c1	2.25
CNC(=O)N(C)C(=O)Nc1cc(OC)ccc1F	2.14
CNC(=O)N(C)C(=O)Nc1cc([N+](=O)[O-])ccc1F	2.3

SMILES	logP
CNC(=O)N(C)C(=O)Nc1cc(S(=O)(=O)C(C)C)ccc1F	1.87
Cc1ccccc1C1OCC2ON=C(c3ccccc3)C2CO1 (stereo unspecified)	2.72
CNC(=O)N(C)C(=O)Nc1cc(C(C)=O)ccc1F	1.82
CN(C)C(=O)Nc1ccc(Oc2nnn(C3CCCCC3)n2)cc1	2.67
CNC(=O)N(C)C(=O)Nc1cc(C(=O)OC)ccc1F	2.28
CN(C)C(=O)Nc1ccc(Oc2nnn(Cc3ccccc3)n2)cc1	2.25
CN(C)C(=O)Nc1ccc(Oc2nnn(C)n2)cc1	0.63
CNC(=O)N(C)C(=O)Nc1cc(Cc2ccccc2)ccc1F	3.9
CCC(CC)c1ccc(F)c(NC(=O)N(C)C(=O)NC)c1	4.46
CC(C)n1nnc(Oc2ccc(NC(=O)N(C)C)cc2)n1	1.45
C#CCn1nnnc1Oc1ccc(NC(=O)N(C)C)cc1	1
CNC(=O)N(C)C(=O)Nc1cc(OC(C)C)ccc1F	3.08
CNC(=O)N(C)C(=O)Nc1cc(C(C)(C)C)ccc1F	3.96
c1ccc(C2=NOC3COC(c4ccccc4)OCC23)cc1 (stereo unspecified)	3.42
CCc1ccc(F)c(NC(=O)N(C)C(=O)NC)c1	3.23
CN(C)C(=O)Nc1ccc(Oc2nnnn2C(C)(C)C)cc1	1.65
CNC(=O)N(C)C(=O)Nc1cc(C(C)C)ccc1F	3.53
C=CCn1nnc(Oc2ccc(NC(=O)N(C)C)cc2)n1	1.65
